Measurements published in patent US8404665B2, “In vivo use of glutathione S-transferase activated nitric oxide donors” (University of Utah Research Foundation, priority 2002, dated 2013).

What was measured:
HL-60 cells [1] = experiment: Apoptosis in HL-60 cells by DNA laddering; assay type: cell-based, human; details: 1 μM, twenty-four hours post-addition
Method: Cell Growth, Differentiation and Apoptosis Assays. The number of viable cells was determined using the MTT assay according to the manufacturer's protocol (Promega, Madison, Wis.) or using a Coulter counter. Briefly, a MTT assay is an analytical technique that uses the dye dimethylthiazolyl-diphenyltetrazolium (MTT) which turns from yellow to brownish-purple as it is reduced in the mitochondria of living cells. The assay is useful in calorimetric quantitation of cell viability and proliferation. In contrast, cell differentiation was evaluated using Wright and Non-Specific Esterase (NSE) staining of cells collected on microscope slides by cytospin as previously described (Magrinat, G. et al. (1992) Blood 80: 1880-1884). Apoptosis was assayed by flow cytometry and by determining DNA fragmentation using agarose gel electrophoresis as previously described (Shami, P. J. et al. (1998) Leukemia 12: 1461-1466). For the flow cytometry assay, we used the propidium iodide staining method of Nicoletti et al. (Nicoletti, I. et al. (1991) J. Immunol. Methods 139: 271-279).
Twenty-four hours post-addition, apoptosis induction was assayed by DNA laddering.

HL-60 cells [2] = experiment: NO generation (nitrate and nitrite) by HL-60 cells in serum-free PBS; assay type: cell-based, human
Method: Production of NO was then determined by measuring levels of nitrate and nitrite, byproducts of NO oxidation. Serum-free buffer was used to eliminate the confounding effects of nitrates in the serum or medium. When added to HL-60 cells suspended in serum-free phosphate buffered saline (PBS) buffer at a concentration of 10 μM, JS-K appeared to generate NO in a time-dependent fashion with peak levels at 24 hours. […] For this, JS-K was added to HL-60 cells suspended in serum-free PBS at a concentration of 20 μM and nitrate+nitrite levels in the supernatants were determined 24 hours post-addition.

HL-60 cells [3] = experiment: Systemic leukemia model: NOD/SCID mice injected intravenously with HL-60 cells; assay type: in vivo
Method: A second experiment was conducted with NOD/SCID mice injected intravenously with HL-60 cells. Control mice appeared to develop systemic disease as evidenced by large abdominal lymph nodes and leukemia cell engraftment in the liver, spleen and bone marrow. Treated mice were administered 1 μmol/kg intravenous JS-K for three to four weeks beginning one day after inoculation. Control mice were treated with vehicle. A human-specific anti-CD15 antibody was utilized in flow cytometric analysis to identify the leukemic cells. […] Additionally, the number and size of enlarged abdominal lymph nodes appeared to be smaller in these animals.

Hydrolysis of JS-K = assay type: physicochemical
Method: For increased JS-K consumption rate at an initial concentration of 50 uM in 0.1 M phosphate (pH=7.4) at 37° C. as a function of increasing GSH concentration. The value of k1 obtained from the intercept appeared to be in statistical agreement with the rate constant for JS-K hydrolysis (1×10^−6 s^−1) measured separately in the absence of GSH. The small amount of the hydrolysis product (2,4-dinitrophenol) (data not shown) was apparently formed in the dimethyl sulfoxide stock solution, which in this case had been stored in the refrigerator with intermittent use during several weeks.

[4] = test system: 58 human cancer cell lines; assay type: cell-based
Method: Anticancer screen of JS-K against the NCI 58 human cancer cell lines. Cells initially maintained in multiple T150 tissue-culture flasks were detached from the flasks by addition of 2-3 ml of 0.05% trypsin-EDTA when cells reached 70-90% confluency. Thereafter, trypsin was inactivated by addition of 10 ml of RPMI 1640 medium containing 5% fetal bovine serum. All cells were then transferred and seeded onto 96-well microtiter plates at densities between 5,000 and 30,000 cells per well. Three cell lines were inoculated per plate. The cells were grown in RPMI 1640 supplemented with 5% fetal bovine serum and 2 mM L-glutamine for 24 h at 37° C. to allow stabilization prior to addition of JS-K. A total of 58 human cancer cell lines were used for the broad screening. The stock solution of JS-K in DMSO was serially diluted with the RPMI 1640 medium and added immediately to the microtiter plates to produce five concentrations of JS-K, i.e., 10^−4, 10^−5, 10^−6, 10^−7 and 10^−8 M. JS-K was incubated with cells for 48 h.
At the end of incubation, the cells were fixed in situ by 10% trichloroacetic acid, and washed five times with water and dried. Sulforhodamine B (0.4% in 1% acetic acid), a protein stain binding to basic amino acids of cellular macromolecules, was added to each well, and incubated for 10 min at room temperature. Unbound Sulforhodamine B is removed by washing five times with acetic acid. Then the plates were air-dried. Bound stain is solubilized with Tris buffer, and the optical densities were read at 515 nm. The optical densities generated from Sulforhodamine B staining are a function of cell mass and growth rate (Monks et al., 1991). Thus cells with small mass (e.g., leukemias) or relatively slow division rate (e.g., renal RXF393 and lung cancer HOP-92) were inoculated at the relatively high densities of 20,000-30,000 cells per well, while more rapidly dividing cells (e.g., colon HT29 and HCT-116 cell lines, and lung NCI-H460 cells) were inoculated at 5,000 cells per well. For the suspended leukemia cell subpanel, the cells were fixed to the bottom of the microtiter well by adding cold trichloroacetic acid (final concentration 16%) at the end of the drug-incubation period.
The dose-response curve is created by plotting the % growth against the log10 of the corresponding JS-K concentrations for each cell line by disease subpanel group. Three horizontal lines are provided at the % growth values of 50, 0 and −50, respectively. Thus the molar JS-K concentrations corresponding to points where the curves cross these lines represent the interpolated values that cause 50% growth inhibition (GI50, the JS-K concentration causing a 50% reduction in the net protein increase in control cells), total growth inhibition (TGI, the JS-K concentration causing amount of protein at the end of incubation to be equal to the amount at the beginning) and 50% cell killing (LC50, the JS-K concentration causing a 50% reduction in the protein of treated cells at the end of the drug incubation, compared with that at the beginning, indicating a net loss of cells following drug treatment), respectively.

[5] = 1 μmol/kg intravenous for three to four weeks, versus controls

SMILES: CCOC(=O)N1CCN(/[N+]([O-])=N/Oc2ccc([N+](=O)[O-])cc2[N+](=O)[O-])CC1 [JS-K, O^2-(2,4-dinitrophenyl) 1-[(4-ethoxycarbonyl)piperazin-1-yl]diazen-1-ium-1,2-diolate]
- apoptosis induction by DNA laddering (HL-60 cells [1]): potent inducer of apoptosis in leukemia cells
- time of peak NO levels (nitrate and nitrite) (HL-60 cells [2]; 10 μM, HL-60 cells in serum-free PBS): 24 h
- extent of NO release versus cell number (HL-60 cells [2]; 20 μM, nitrate+nitrite in supernatants 24 hours post-addition): positively correlated with the cell number
- activation of JS-K and NO release by supernatants from HL-60 cells (HL-60 cells [2]; cell supernatants only): did not induce activation of JS-K and NO release
- colonies from cultured bone marrow in human hematopoietic cell-selective semi-solid medium (HL-60 cells [3]; 1 μmol/kg intravenous): few if any colonies of cancerous cells
- leukemic cell engraftment (anti-CD15 flow cytometry) (HL-60 cells [3]; [5]): decreased leukemic cell engraftment in the bone marrow and liver
- number and size of enlarged abdominal lymph nodes (HL-60 cells [3]; [5]): smaller
- treated mice with almost no evidence of disease (HL-60 cells [3]; three to four weeks after inoculation): Two of the five
- resistance to hydrolysis (Hydrolysis of JS-K; 0.1 M phosphate pH 7.4, 37° C.): resistant to simple hydrolysis
- rate constant for JS-K hydrolysis (Hydrolysis of JS-K; measured separately in the absence of GSH, pH 7.4, 37° C.): 1e-06 s⁻¹
- hydrolysis (Hydrolysis of JS-K; pH=12): much more facile
- CC50 [4]: 29.5 µM
- relative sensitivity to cytostatic and cytotoxic effects [4]: most sensitive
- GI50 ([4]; 58 human cell lines, 48 h): 1.3 µM
- mean TGI ([4]; 58 human cell lines, 48 h): 6.6 µM
- inhibition against prostate cancer cell lines ([4]; prostate cancer cell lines): moderate inhibition
- LC50s ([4]; some cell lines within the colon, melanoma and breast cancer subpanels): more than 100 μM
